Data on 2 substances can be found in patent US12281058B2, “Manganese catalysts and their use in hydrogenation of ketones” (priority 2019, dated 2025).

Read-outs that look alike come from different tables or passages of the source.

Assay [1] can be described thus: Hydrogenation of acetophenone, microwave vials in autoclave (vial method). Particulars: for e.e.: 50 bar H2, chiral HPLC, (S).
The nature of assay [2]: Ketone hydrogenation, general procedure (vial). Particulars: 2′-fluoroacetophenone; 0.1 mol % catalyst, 50 °C, 16 h, 50 bar H2, K2CO3, ethanol.
Assay [3] in a line: Ketone hydrogenation, general procedure (vial). Particulars: 2′-chloroacetophenone; 0.1 mol % catalyst, 50 °C, 16 h, 50 bar H2, K2CO3, ethanol.
Assay [4] can be described thus: Ketone hydrogenation, general procedure (vial). Particulars: 2′-methoxyacetophenone; 0.1 mol % catalyst, 50 °C, 16 h, 50 bar H2, K2CO3, ethanol.
Assay [5] in a line: Ketone hydrogenation, general procedure (vial). Particulars: 2′,6′-dichloro-3′-fluoroacetophenone, 0.1 mol % catalyst, 50 °C, 16 h.
Assay [6] is described as follows: Ketone hydrogenation, general procedure (vial). Particulars: 4′-chloropropiophenone, 0.1 mol % catalyst, 50 °C, 16 h.
Assay [7] can be described thus: Ketone hydrogenation, general procedure (vial). Particulars: cyclohexylphenylketone; 0.1 mol % catalyst, 50 °C, 16 h, 50 bar H2, K2CO3, ethanol.
For assay [8] the following is noted: for Conversion (%) / TOF: acetophenone, gas uptake, 20 bar H2, 50 °C; for TOF: at 20% conversion.
Method: The vessel was sealed and pressurised with hydrogen gas (5 bar) and vented. This was repeated twice. The degassed ethanol solution was added via an injection port and the vessel sealed and pressurised with hydrogen gas (20 bar) and vented. This was repeated twice. The pressure was set to 2 bar and the mixture heated to 50° C. at which time the pressure was increased to 20 bar and the experiment started. Gas uptake was monitored by reduction of the pressure in the burette. […] The vessel was cooled to room temperature, vented and the content concentrated to dryness and analysed by ^1H-NMR to confirm full conversion. The uptake curve was converted to conversion by dividing the gas uptake at a time-point by total uptake and multiplied by 100 to get percentage conversion. Substrate and product concentrations could be calculated, from which the turnover frequency (TOF) could be calculated. The TOF was reported at 20% conversion to minimise temperature influence of the vessel setup.
Assay [9] in a line: Ketone hydrogenation, general procedure (vial). Particulars: propiophenone; 0.001 equiv. catalyst, 50 °C, 16 h, 50 bar H2, K2CO3, ethanol; chiral HPLC, (S).
Assay [10] is described as follows: Ketone hydrogenation, general procedure (vial). The following applies: 4′-methoxypropiophenone, 0.001 equiv. catalyst, 50 °C, 16 h.
Assay [11] is described as follows: Ketone hydrogenation, general procedure (vial). The following applies: isobutyrophenone; 0.001 equiv. catalyst, 50 °C, 16 h, 50 bar H2; chiral HPLC, (S).

As for “[(Rc,Sp)—N-(4-(dimethylamino)pyridine-2-methyl)-1-(˜2-bis(4-methoxy-3,5-dimethylphenyl)phosphino)ferrocenylethylamine]-κN^1-κN^2-κ^P-tricarbonyl manganese (I) bromide [compound 6]”, the Conversion in [1] (0.01 mol % catalyst, 65 °C, 24 h, 50 bar H2) is given as over 99%; in assay [1] (0.02 mol % catalyst, 60 °C, 16 h, 50 bar H2) it was over 99%; in assay [1] (0.1 mol % catalyst, 50 °C, 16 h, 50 bar H2, K2CO3, ethanol), over 99%; in assay [2] it was over 99%; in assay [3] it was over 99%; in [4], over 99%. The Conversion in [5] (50 bar H2, K2CO3, ethanol) is over 99%; in assay [6] (50 bar H2, K2CO3, ethanol), over 99%; in [7], over 99%. Also, the e.e. in assay [1] (0.01 mol % catalyst, 65 °C, 24 h) is listed as 57% (S); in assay [1] (0.02 mol % catalyst, 60 °C, 16 h), 51% (S). Besides, the “Conversion (%)” value is 56.5% in [1] (vial method, 0.1 mol % catalyst, 2 h, 50 bar H2); 100% in [8] (0.05 mol % catalyst, 12 h); 100% in [8] (0.1 mol % catalyst, ethanol, run to completion). For the same substance, the TOF was 283 h⁻¹ in assay [1] (vial method, 0.1 mol % catalyst, calculated after 2 h, 50 bar H2); 237 h⁻¹ in [8] (0.05 mol % catalyst); 230 h⁻¹ in assay [8] (0.1 mol % catalyst). For the same substance, the “turnover frequency (TOF) with 6 relative to 7” value in assay [8] (hydrogenation of acetophenone, Table 2) is reported as “at least 3.5 times”.

Turning to “[(Rc,Sp)—N-2-picolynyl-1-(-2-bis(4-methoxy-3,5-dimethylphenyl)-phosphino)ferrocenylethylamine]-κN^1-κN^2-κ^P-tricarbonyl manganese (I) bromide [compound 2]”, the e.e. in assay [5] (50 bar H2, chiral HPLC, (S)) was found to be 82%; in assay [6] (50 bar H2, chiral HPLC, (S)) it was 80%. Besides, the ee was found to be 76% in assay [9]; 70% in assay [10] (50 bar H2, chiral HPLC, (S)); 90% in [11]. The “conversion to product (NMR analysis)” value in [10] (50 bar H2, K2CO3, ethanol) came to 96%.
